The values that follow come from patent publication US9708259B2 (Hoffmann-La Roche Inc., priority 2013, dated 2017).

A word on the pEC50: it is the negative decadic logarithm of the EC50, by convention in mol/L.

Molecules are shown by their SMILES. Substitutions are numbered along the chain they refer to. pEC50: −log10 of the molar value. Where two headings read alike, the source gives them in different places.

The target in one assay is T1, human M1 (Homo sapiens, UniProt P11229).
T1 construct: expressed in transfected cells; host or cells: CHO cells
T1 sequence (P11229 1-460): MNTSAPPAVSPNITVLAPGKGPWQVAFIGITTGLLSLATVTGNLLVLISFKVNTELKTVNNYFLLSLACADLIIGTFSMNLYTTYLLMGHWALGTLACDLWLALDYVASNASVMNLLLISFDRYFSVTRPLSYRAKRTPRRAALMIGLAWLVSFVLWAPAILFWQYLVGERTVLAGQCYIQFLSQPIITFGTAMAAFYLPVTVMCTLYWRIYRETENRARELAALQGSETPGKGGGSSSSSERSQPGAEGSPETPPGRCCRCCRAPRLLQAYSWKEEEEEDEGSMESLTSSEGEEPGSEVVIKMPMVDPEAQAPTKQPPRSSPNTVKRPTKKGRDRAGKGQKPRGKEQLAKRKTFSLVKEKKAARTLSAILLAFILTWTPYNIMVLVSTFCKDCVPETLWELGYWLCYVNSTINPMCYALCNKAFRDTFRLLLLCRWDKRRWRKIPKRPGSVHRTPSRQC
The assay can be described thus: M1 PAM assay (FLIPR intracellular calcium), human M1. It counts as cell-based. In short, it runs like this:
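CHO cells expressing M1, Fluo-4AM-loaded, in HEPES/probenecid HBSS pH 7.4, 1% DMSO final. Compounds pre-incubated 2 min for agonist activity versus 30 nM acetylcholine control. For PAM activity, acetylcholine EC20 added after the 2 min pre-incubation, then 2 min more before FLIPR intracellular Ca2+ read.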
(In general: Calcium assays in cells follow changes in intracellular calcium, usually with a dye or a luminescent sensor.)

The target in another assay is T2, ratM1 (Rattus norvegicus, UniProt P08482).
T2 construct: expressed in transfected cells; host or cells: CHO cells (stated generally for the assay, not specifically for rat M1)
T2 sequence (P08482 1-460): T1 sequence (P11229 1-460) with A5V, T254S, P309S, R320K, A337G, I413V
The assay can be described thus: M1 PAM assay (FLIPR intracellular calcium), rat M1. It counts as cell-based.

[1] abbreviates: CHO human M1 cells, FLIPR Ca2+, with EC20 of acetylcholine, first value of the cell, read-out: hM1 EC50.
The mark [2] stands for this setting: rat M1, FLIPR Ca2+, second value of the cell, read-out: ratM1 EC50.

As to `Cn1cc(-c2ccc(Cn3cc(C(=O)N[C@@H]4C[C@@H]5CC[C@H]4O5)c4c(F)cccc43)c(F)c2)cn1` (relative stereo) [Example 104, N-((endo)-7-oxabicyclo[2.2.1]heptan-2-yl)-4-fluoro-1-(2-fluoro-4-(1-methyl-1H-pyrazol-4-yl)benzyl)-1H-indole-3-carboxamide], the results for the pEC50 on human M1 (setting [1]) and on ratM1 (setting [2]) were 6.78 and 6.71, respectively.
Taken in the same sequence, the figures for `Cn1cc(-c2ccc(Cn3cc(C(=O)N[C@H]4CCCC[C@@]4(C)O)c4c(F)cccc43)c(F)c2)cn1` (racemic) [Example 23, 4-fluoro-1-(2-fluoro-4-(1-methyl-1H-pyrazol-4-yl)benzyl)-N-((1SR,2RS)-2-hydroxy-2-methylcyclohexyl)-1H-indole-3-carboxamide] were 7.83 and 7.59.
Taken in the same sequence, the figures for `Cn1cc(-c2ccc(Cn3cc(C(=O)N[C@H]4CCOC[C@@H]4O)c4c(F)cccc43)c(F)c2)cn1` (mixture of isomers) [Example 6, 4-fluoro-1-(2-fluoro-4-(1-methyl-1H-pyrazol-4-yl)benzyl)-N-((3R,4RS)-3-hydroxytetrahydro-2H-pyran-4-yl)-1H-indole-3-carboxamide] were 7.15 and 6.83.
The corresponding values for `COc1ccc(F)c2c(C(=O)NC3CCOCC3)cn(Cc3ccc(-c4cnn(C)c4)cc3)c12` [Example 151, 4-fluoro-7-methoxy-1-(4-(1-methyl-1H-pyrazol-4-yl)benzyl)-N-(tetrahydro-2H-pyran-4-yl)-1H-indole-3-carboxamide] are 6.71 and 6.52.
For the compound `O=C(N[C@H]1CCCC[C@@H]1O)c1cn(Cc2ccc(-n3ccnc3)nc2)c2cccc(F)c12` [Example 142, 1-((6-(1H-imidazol-1-yl)pyridin-3-yl)methyl)-4-fluoro-N-((1S,2S)-2-hydroxycyclohexyl)-1H-indole-3-carboxamide], the pEC50 at human M1 (setting [1]) is 7.12; at ratM1 (setting [2]), 6.68.
For `O=C(N[C@H]1CCCC[C@@H]1O)c1cn(Cc2ccc(-c3nc[nH]n3)cc2)c2cccc(F)c12` [Example 156, 1-(4-(1H-1,2,4-triazol-3-yl)benzyl)-4-fluoro-N-((1S,2S)-2-hydroxycyclohexyl)-1H-indole-3-carboxamide], the pEC50 on human M1 (setting [1]) is 8.52; on ratM1 (setting [2]), 8.00.
For the compound `N#Cc1ccc(Cn2cc(C(=O)N[C@H]3CCOC[C@@H]3O)c3c(F)cccc32)cc1` (racemic) [Example 16, 1-(4-cyanobenzyl)-4-fluoro-N-((3RS,4SR)-3-hydroxytetrahydro-2H-pyran-4-yl)-1H-indole-3-carboxamide], the pEC50 at human M1 is 6.63; at ratM1, 6.47.
In the case of `Cn1cc(-c2ccc(Cn3cc(C(=O)N[C@H]4CCOC[C@@H]4O)c4c(F)c(F)c(F)c(F)c43)c(F)c2)cn1` (single isomer, unassigned) [Example 64, 4,5,6,7-Tetrafluoro-1-(2-fluoro-4-(1-methyl-1H-pyrazol-4-yl)benzyl)-N-((3R,4S) or (3S,4R))-3-hydroxytetrahydro-2H-pyran-4-yl)-1H-indole-3-carboxamide], the pEC50 at human M1 (setting [1]) is 7.26; at ratM1 (setting [2]), 7.10.
Turning to `O=C(N[C@H]1CCOC[C@@H]1O)c1cn(Cc2ccc(-c3nccs3)cc2)c2cccc(F)c12` [Example 79, 4-fluoro-N-((3R,4S)-3-hydroxytetrahydro-2H-pyran-4-yl)-1-(4-(thiazol-2-yl)benzyl)-1H-indole-3-carboxamide], the pEC50 at human M1 (setting [1]) is 7.77; on ratM1 (setting [2]), 7.59.
The corresponding values for `Cn1cc(-c2ccc(Cn3cc(C(=O)N[C@H]4CCCC[C@@H]4O)c4c(F)cccc43)cc2)cn1` [Example 44, 4-fluoro-N-((1S,2S)-2-hydroxycyclohexyl)-1-(4-(1-methyl-1H-pyrazol-4-yl)benzyl)-1H-indole-3-carboxamide] are 8.22 and 8.01.
As to `Cn1cnc2cc(Cn3cc(C(=O)N[C@H]4CCCC[C@@H]4O)c4c(F)cccc43)ccc21` [Example 56, 4-fluoro-N-((1S,2S)-2-hydroxycyclohexyl)-1-((1-methyl-1H-benzo[d]yridine-5-yl)methyl)-1H-indole-3-carboxamide], the figures for the pEC50 on human M1 and at ratM1 were 6.87 and 6.55, respectively.
Taken in the same sequence, the figures for `Cn1ncc2cc(Cn3cc(C(=O)N[C@H]4CCCC[C@@H]4O)c4c(F)cccc43)ccc21` [Example 37, 4-fluoro-N-((1S,2S)-2-hydroxycyclohexyl)-1-((1-methyl-1H-indazol-5-yl)methyl)-1H-indole-3-carboxamide] were 7.36 and 7.40.
On to `Cn1cc(-c2ccc(Cn3nc(C(=O)N[C@H]4CCCC[C@@H]4O)c4c(F)ccc(F)c43)c(F)c2)cn1` [Example 72, 4,7-difluoro-1-(2-fluoro-4-(1-methyl-1H-pyrazol-4-yl)benzyl)-N-((1S,2S)-2-hydroxycyclohexyl)-1H-indazole-3-carboxamide], for which the results for the pEC50 at human M1 (setting [1]) and on ratM1 (setting [2]) were 7.37 and 6.88, respectively.
Taken in the same sequence, the figures for `Cn1cc(-c2ccc(Cn3cc(C(=O)NC4CCOCC4)c4c(F)cccc43)c(F)c2)cn1` [Example 21, 4-fluoro-1-(2-fluoro-4-(1-methyl-1H-pyrazol-4-yl)benzyl)-N-(tetrahydro-2H-pyran-4-yl)-1H-indole-3-carboxamide] were 7.22 and 6.76.
Taken in the same sequence, the figures for `Cn1cc(-c2ccc(Cn3cc(C(=O)N[C@@H]4CCCC(F)(F)[C@H]4O)c4c(F)cccc43)c(F)c2)cn1` [Example 102, N-((1R,2S)-3,3-difluoro-2-hydroxycyclohexyl)-4-fluoro-1-(2-fluoro-4-(1-methyl-1H-pyrazol-4-yl)benzyl)-1H-indole-3-carboxamide] were 7.54 and 7.06.
The corresponding values for `CNC(=O)c1ccc(Cn2cc(C(=O)NC3CCOCC3)c3c(F)cccc32)cc1` [Example 132, 4-fluoro-1-(4-(methylcarbamoyl)benzyl)-N-(tetrahydro-2H-pyran-4-yl)-1H-indole-3-carboxamide] are 8.52 and 7.66.
`Cn1cc(-c2ccc(Cn3nc(C(=O)N[C@H]4CCOC[C@@H]4O)c4c(F)cccc43)c(F)c2)cn1` (racemic) [Example 7, 4-fluoro-1-(2-fluoro-4-(1-methyl-1H-pyrazol-4-yl)benzyl)-N-((3RS,4SR)-3-hydroxytetrahydro-2H-pyran-4-yl)-1H-indazole-3-carboxamide]: the pEC50 on human M1 (setting [1]) is 7.15; at ratM1 (setting [2]), 6.83.
Turning to `CNC(=O)c1ccc(Cn2cc(CC(=O)N[C@H]3CCOC[C@@H]3O)c3c(F)cccc32)cc1` [Example 98, 4-((4-fluoro-3-(2-((3R,4S)-3-hydroxytetrahydro-2H-pyran-4-ylamino)-2-oxoethyl)-1H-indol-1-yl)methyl)-N-methylbenzamide], the pEC50 was 7.49 on human M1 (setting [1]) and 6.87 on ratM1 (setting [2]).
Taken in the same sequence, the figures for `CCc1ccc(F)c2c(C(=O)N[C@H]3CCOC[C@@H]3O)cn(Cc3ccc(-c4cnn(C)c4)cc3)c12` [Example 109, 7-ethyl-4-fluoro-N-((3R,4S)-3-hydroxytetrahydro-2H-pyran-4-yl)-1-(4-(1-methyl-1H-pyrazol-4-yl)benzyl)-1H-indole-3-carboxamide] were 7.21 and 7.10.
For the compound `CNC(=O)c1ccc(Cn2cc(C(=O)NC3CC3)c3c(F)cccc32)cc1` [Example 111, N-cyclopropyl-4-fluoro-1-[[4-(methylcarbamoyl)phenyl]methyl]indol-3-carboxamide], the figures for the pEC50 at human M1 (setting [1]) and on ratM1 (setting [2]) were 6.90 and 6.39, respectively.
The corresponding values for `Cn1cc(-c2ccc(Cn3cc(C(=O)NC4CCOCC4)c4c(F)cccc43)cn2)cn1` [Example 68, 4-fluoro-1-((6-(1-methyl-1H-pyrazol-4-yl)yridine-3-yl)methyl)-N-(tetrahydro-2H-pyran-4-yl)-1H-indole-3-carboxamide] are 6.57 and 6.74.
As for `O=C(N[C@H]1CCCC[C@@H]1O)c1cn(Cc2cnc(-c3ccccc3)nc2)c2cccc(F)c12` [Example 139, 4-fluoro-N-((1S,2S)-2-hydroxycyclohexyl)-1-((2-phenylpyrimidin-5-yl)methyl)-1H-indole-3-carboxamide], the results for the pEC50 at human M1 (setting [1]) and at ratM1 (setting [2]) were 6.37 and 5.58, respectively.
